Patent publication US4188380A, “Surface active quaternary higher dialkyl phosphonium salt biocides and intermediates” (Exxon Research & Engineering Co., priority 1976, dated 1980)
Read-outs that look alike come from different tables or passages of the source.

Legend:
[1] = Surface tension of water solutions towards air, ASTM D-971; type: physicochemical; conditions: 25°
Description: (§1) To obtain standard data for estimating the surface activity of quaternary higher dialkyl phosphonium salts, the surface tensions of their water solutions and the interfacial tensions of their equilibriated solutions in water and a paraffinic hydrocarbon were determined as described by ASTM D-971-50.
(§2) Didodecyl dimethyl phosphonium chloride and, for comparison, octadecyl trimethyl phosphonium chloride were tested as described above, according to ASTM D-971. The surface tension towards air measurement used distilled water at 25°, which gives a base value of 72 dynes per cm. For interfacial tension measurements a water-paraffin (Nujol) system was used. Without any added surfactant, this has an interfacial tension of 52 dynes per cm. The interfacial tension measurements of the phosphonium chloride solutions were made after equal volumes of the two immiscible solvent and the given amount of salt were slowly stirred for 30 minutes to arrive at equilibrium concentrations of the salt.

[2] = Interfacial tension in water-paraffin (Nujol) system, ASTM D-971; type: physicochemical; conditions: 25°
Description: as §1, §2

[3] = system: Pseudomonas aeruginosa; assay: Broth dilution minimum inhibitory concentration, Pseudomonas aeruginosa; type: cell-based; conditions: for MIC: Pseudomonas aeruginosa, read-out: Minimum Inhibitory Concentration, Pseudomonas aeruginosa
Description: (§3) In the primary biocidal testing of the quaternary higher dialkyl phosphonium salts, broth dilution was used as the primary method to determine the minimum salt concentrations necessary for a complete inhibition of bacterial, fungal and algal growth. Typically, 2 ml per tube of trypticase soy broth was used as nutrient medium. Usually 10 mg of the phosphonium chloride was dissolved in 5 ml ethanol and this was then diluted to 10 ml with water to give an aqueous ethanol stock solution of […] concentration. The inoculum of the microorganism was one drop of a thousandfold diluted 24 hour culture which usually contained 1000 bacteria or 10,000 fungal or algal cells. To the inoculated broth media, different amounts of the experimental chemicals were administered. The media were then observed for visible growth after a period dependent on the type of the microorganism used. Bacterial growth or inhibition was observed after one or two days. Growths of fungi and algae were checked after 7 or 14 days. Observing a series of dilutions of the experimental chemical, minimum growth inhibitory, i.e., microbiostatic, concentrations (MIC) were determined.
(§4) A number of quaternary phosphonium chlorides characterized in Table I were broth dilution tested against an important gram negative bacterial organism, Pseudomonas aeruginosa; a common gram positive bacterium, Staphylococcus aureus, and a widespread fungus, Aspergillus niger, and a common algal organism, Chlorella vulgaris.

[4] = system: Staphylococcus aureus; assay: Broth dilution minimum inhibitory concentration, Staphylococcus aureus; type: cell-based; conditions: read-out: Minimum Inhibitory Concentration, Staphylococcus aureus
Description: as §3, §4

[5] = system: Aspergillus niger; assay: Broth dilution minimum inhibitory concentration, Aspergillus niger; type: cell-based; conditions: for MIC: Aspergillus niger, read-out: Minimum Inhibitory Concentration, Aspergillus niger
Description: as §3, §4

[6] = system: Chlorella vulgaris; assay: Broth dilution minimum inhibitory concentration, Chlorella vulgaris; type: cell-based; conditions: read-out: Minimum Inhibitory Concentration, Chlorella vulgaris
Description: as §3, §4

[7] = system: Escherichia coli; assay: Broth dilution minimum inhibitory concentration, Escherichia coli; type: cell-based
Description: as §3
(§5) To test the breadth of the microbiocidal spectrum of didecyl dimethyl phosphonium chloride, minimum inhibitory concentrations (MIC's) were determined against several additional organisms in broth dilution tests with the following results: […]

[8] = system: Salmonella typhosa; assay: Broth dilution minimum inhibitory concentration, Salmonella typhosa; type: cell-based; conditions: Salmonella enterica
Description: as §3, §5

[9] = system: Candida albicans; assay: Broth dilution minimum inhibitory concentration, Candida albicans; type: cell-based
Description: as §3, §5

[10] = system: Staph. aureus; assay: AOAC Germicidal and Sanitizer Test, Staph. aureus; type: cell-based; conditions: Staphylococcus aureus
Description: (§6) To determine the effectiveness of a quaternary higher dialkyl phosphonium salt, i.e. didecyl dimethyl phosphonium chloride as a bactericide, the AOAC Germicidal and Sanitizer Test was used.

[11] = system: E. coli; assay: AOAC Germicidal and Sanitizer Test, E. coli; type: cell-based; conditions: Escherichia coli
Description: as §6

[12] = Acute oral toxicity in Swiss albino mice; type: in vivo; conditions: mouse, in vivo, Swiss albino mice, read-out: median lethal toxicity, acute oral
Description: (§7) The acute oral toxicity of didecyl dimethyl phosphonium chloride and dioctadecyl diethyl phosphonium chloride was determined using Swiss albino mice. The median lethal toxicities found were 350 and 2840 mg salt per body kg mice, respectively.

[13] = system: mice; assay: Acute oral toxicity in Swiss albino mice; type: in vivo
Description: as §7

[14] = Solubility in toluene
[15] = system: bacterial, fungal and algal growth; assay: Microbiocidal activity in general (broth dilution); type: cell-based
Description: as §3

Which results are given for `CCCCCCCCCCCCCCCCCC[P+](C)(C)C.[Cl-]` [C18 H37 P^+ (CH3)3, octadecyl trimethyl phosphonium chloride, reference compound]?
Surface Tension of Water ([1]; 0.010% salt): 42 Dynes/cm; Surface Tension of Water ([1]; 0.100% salt): 41 Dynes/cm; Interfacial Tension of Water-Nujol ([2]; 0.010% salt): 12 Dynes/cm; Interfacial Tension of Water-Nujol ([2]; 0.100% salt): 10 Dynes/cm

For `CCCCCCCCCCCC[P+](C)(C)CCCCCCCCCCCC.[Cl-]` [Example 1, Didodecyl Dimethyl Phosphonium Chloride], which “Surface Tension of Water” value ([1]; 0.001% salt) is on record?
Its value is 33 Dynes/cm.

What about the “Surface Tension of Water” value ([1]; 0.0025% salt) of the same molecule?
Its value is 33 Dynes/cm.

And the “Surface Tension of Water” value ([1]; 0.005% salt)?
The value was 32 Dynes/cm.

What about the “Surface Tension of Water” value ([1]; 0.0075% salt) of the same molecule?
The value was 31 Dynes/cm.

What about the “Surface Tension of Water” value ([1]; 0.010% salt) of the same molecule?
Its value is 31 Dynes/cm.

And the “Surface Tension of Water” value ([1]; 0.100% salt)?
The value was 29 Dynes/cm.

And the “Interfacial Tension of Water-Nujol” value ([2]; 0.001% salt)?
Its value is 3 Dynes/cm.

And the “Interfacial Tension of Water-Nujol” value ([2]; 0.0025% salt)?
Its value is 3 Dynes/cm.

What about the “Interfacial Tension of Water-Nujol” value ([2]; 0.005% salt) of the same molecule?
The value was 3 Dynes/cm.

And the “Interfacial Tension of Water-Nujol” value ([2]; 0.0075% salt)?
The value was 3 Dynes/cm.

And the “Interfacial Tension of Water-Nujol” value ([2]; 0.010% salt)?
The value was 3 Dynes/cm.

And the “Interfacial Tension of Water-Nujol” value ([2]; 0.100% salt)?
Its value is 2 Dynes/cm.

And the “activity against Pseudomonas aeruginosa” value [3]?
Its value is “no significant activity”.

And the MIC ([3]; 24 h, after 1 day)?
Its MIC is 2500 µg/mL.

What about the MIC ([4]; 24 h, after 1 day) of the same molecule?
The MIC was 1 µg/mL.

What about the MIC ([5]; 168 h, after 7 days) of the same molecule?
The MIC was 75 µg/mL.

What about the MIC ([6]; 168 h, after 7 days) of the same molecule?
The MIC was 8 µg/mL.

Which “activity against Pseudomonas aeruginosa” value [3] does the source give for `CCCCCCCCCC[P+](C)(C)CCCCCCCCCC.[Cl-]` [Example 3, Didecyl Dimethyl Phosphonium Chloride] here?
Its value is “Particularly outstanding”.

What about the MIC ([3]; 24 h) of the same molecule?
Its MIC is 16 µg/mL.

What about the MIC ([4]; 48 h) of the same molecule?
The MIC was 0.5 µg/mL.

And the MIC ([5]; 336 h)?
The MIC was 0.25 µg/mL.

And the “minimum inhibitory concentration against Aspergillus niger relative to didodecyl dimethyl phosphonium chloride” value ([5]; didecyl versus didodecyl compound (Seq. No. 4))?
The value was “three hundred times smaller”.

And the MIC ([6]; 336 h)?
Its MIC is 0.125 µg/mL.

What about the MIC [7] of the same molecule?
Its MIC is 0.5 µg/mL.

And the MIC [8]?
Its MIC is 8 µg/mL.

And the MIC [9]?
The MIC was 0.25 µg/mL.

What about the killing at 25 ppm ([10]; read-out: Reduction of live Bacterial Organisms in Distilled Water) of the same molecule?
Its killing at 25 ppm is 100%.

What about the killing at 25 ppm ([10]; read-out: Reduction of live Bacterial Organisms in water of 200 ppm Hardness) of the same molecule?
Its killing at 25 ppm is 100%.

And the killing at 25 ppm ([11]; 200 ppm hardness, read-out: Reduction of live Bacterial Organisms in water of 200 ppm Hardness)?
Its killing at 25 ppm is 99.9%.

And the killing at 25 ppm ([11]; distilled water, read-out: Reduction of live Bacterial Organisms in Distilled Water)?
Its killing at 25 ppm is 100%.

What about the LD50 [12] of the same molecule?
The LD50 was 350 mg/kg.

And the “level of oral toxicity” value [13]?
The value was “medium level of oral toxicity”.

Which MIC ([3]; 24 h, after 1 day) does the source give for `CCCCCCCC[P+](C)(C)CCCCCCCC.[Cl-]` [Example 4, Dioctyl Dimethyl Phosphonium Chloride] here?
The MIC was 250 µg/mL.

And the MIC ([4]; 48 h, after 2 days)?
The MIC was 0.5 µg/mL.

What about the MIC ([5]; 336 h, after 14 days) of the same molecule?
The MIC was 7.5 µg/mL.

What about the MIC ([6]; 336 h, after 14 days) of the same molecule?
The MIC was 4 µg/mL.

Which MIC ([3]; 48 h, after 2 days) does the source give for `CCCCCCCC[P+](C)(CC)CCCCCCCC.[Cl-]` [Example 5, Dioctyl Ethyl Methyl Phosphonium Chloride] here?
Its MIC is 250 µg/mL.

For `CCCCCCCCCCCC[P+](CC)(CCCCCCCCCCCC)CC(C)C.[Cl-]` [Example 6, Didodecyl Isobutyl Ethyl Phosphonium Chloride], which “activity against Pseudomonas aeruginosa” value [3] is on record?
Its value is “Particularly outstanding”.

What about the MIC ([3]; 24 h, after 1 day) of the same molecule?
Its MIC is 16 µg/mL.

And the MIC ([4]; 24 h, after 1 day)?
The MIC was 0.5 µg/mL.

And the MIC ([5]; 336 h, after 14 days)?
Its MIC is 1 µg/mL.

What about the MIC ([6]; 336 h, after 14 days) of the same molecule?
Its MIC is 0.5 µg/mL.

And the “solubility in toluene” value [14]?
The value was “highly soluble in toluene”.

With `CCCCCCCCCCCCCCCC[P+](CC)(CCCCCCCCCCCCCCCC)CC(C)C.[Cl-]` [Example 7, Dihexadecyl Isobutyl Ethyl Phosphonium Chloride] as the molecule, how does the “activity against Pseudomonas aeruginosa” value [3] read?
Its value is “Particularly outstanding”.

And the MIC ([3]; 24 h, after 1 day)?
Its MIC is 16 µg/mL.

And the MIC ([4]; 24 h, after 1 day)?
The MIC was 0.5 µg/mL.

What about the MIC ([5]; 336 h, after 14 days) of the same molecule?
Its MIC is 0.5 µg/mL.

What about the MIC ([6]; 336 h, after 14 days) of the same molecule?
The MIC was 0.5 µg/mL.

Which results are given for `CCCCCCCCCCCCCCCCCC[P+](CC)(CC)CCCCCCCCCCCCCCCCCC.[Cl-]` [Example 8, Dioctadecyl Diethyl Phosphonium Chloride]?
MIC ([3]; 48 h): 500 µg/mL; MIC ([4]; 48 h): 15 µg/mL; MIC ([5]; 336 h): 15 µg/mL; MIC ([6]; 336 h): 7.5 µg/mL; LD50 [12]: 2840 mg/kg; level of oral toxicity [13]: essential lack of oral toxicity; microbiocidal activity [15]: not highly active microbiocidally
